Laboratory results from paper PMC8582824, “Targeting DDX3X Helicase Activity with BA103 Shows Promising Therapeutic Effects in Preclinical Glioblastoma Models” (Cancers, 2021).
Values belong to the molecule of their own block, whether it stands above or below them.

Key:
U87 cells = assay: MTS cytotoxicity assay, U87 cells; type: cell-based; conditions: for mean absorbance at 490 nm (MTS): 72 h
Protocol: For CellTiter 96® Aqueous One Solution Cell Proliferation Assay (MTS) (Promega, Madison, WI, USA), cells were seeded at 5 × 10^3 per well in 96-well plates in quadruplicate together a control with no cells to evaluate the background. After 24 h, the culture medium was removed, and fresh medium containing increasing concentrations of chemical compounds was added to cells. […] DMSO was the vehicle used for dilution of the compounds, and its final concentration on cells was less than 0.2%. Medium-only containing wells were included as controls. Cells were incubated with compounds at different concentrations for 72 h, then, 20 µL of CellTiter 96® AQueous One Solution Reagent was added into each well. After 3 h at 37 °C in a humidified, 5% CO2 atmosphere, the absorbance at 492 nm was recorded using an EZREAD400 (Biochrom, Cambridge, United Kingdom) plate reader. The average 490 nm absorbance from the “no cell” control wells was subtracted from all other values to yield background-corrected absorbance. Dose–response curves and CC50 values have been calculated by plotting the absorbance data as a function of inhibitor concentrations and fitting the data by least-squares nonlinear regression, according to the method of Marquardt–Levenberg, with the computer program GraphPad Prism 6.0.
Cells were incubated with a scalar concentration of DDX3X inhibitors, and after 72 h of treatment, cell viability was assessed by cytotoxicity assay. […] Compounds 4, 6, and BA103 were also evaluated against BJ primary fibroblasts; compound 4 has a cytotoxicity value of 84.7 μM; on the contrary, compounds 6 and BA103 were not toxic up to 200 μM concentration. This further excluded a possible nonspecific cytotoxic effect. […] Due to its interesting profile, compound BA103 was further tested against additional pulmonary (A549), breast (MDA-MB-231), colorectal (HCT-116), osteosarcoma (U2OS), rhabdomyosarcoma (RD18), GBM (DBTRG, U87, and U251) and medulloblastoma (DAOY) cancer cell lines.
Figure 5 Cytotoxicity of selected compounds. Compounds were assayed on DU-145, PC3, HepG2, Huh-7, HN6, U251, and U87 cell lines. The concentration of the compound, which reduced the number of viable cells by 50% (CC50), was determined by dose–response curve, and the mean CC50 value for each cell line was calculated by triplicate assays (raw data from U87 and U251 cells with dose–response curves used for the calculation of CC50 in Table S1 and Figure S2).
Table S1: Raw data of optical absorbance at 490 nm from MTS assay in U87 and U251 cells. Tables contain
means with SD of at least 5 different values that were used for preparation of figure 5.

[1] = Parallel artificial membrane permeability assay (PAMPA); type: in vitro ADME; conditions: for Papp at 5 h, 0.5 mM: pH 7.4, read-out: AppP (apparent permeability)
Protocol: Preliminary in vitro ADME analysis was performed to early evaluate the pharmacokinetic (PK) profile of our compounds (Figure 8). Aqueous solubility was calculated by LC-MS-MS analysis. An aliquot of 1 mg of compound was stirred for 24 h at 27 °C in 1 mL of water. The mixture was filtered, and the quantity of solubilized compound was determined. Passive permeability was determined using parallel artificial membrane permeability assay (PAMPA). Microsomal metabolic stability was determined by LC-UV-MS analysis by incubating compounds with human liver microsomes at 37 °C for 60 min (for details, see the Supporting Information).
Chemicals. All solvents, reagents, were from Sigma-Aldrich Srl (Milan, Italy). Dodecane was purchased from Fluka (Milan, Italy). Pooled Male Donors 20 mg mL-1 HLM were from BD Gentest-Biosciences (San Jose, California). Milli-Q quality water (Millipore, Milford, MA, USA) was used. Hydrophobic filter plates (MultiScreen-IP, Clear Plates, 0.45 μm diameter pore size), 96-well microplates, and 96-well UV-transparent microplates were obtained from Millipore (Bedford, MA, USA). […]
Parallel Artificial Membrane Permeability Assay (PAMPA):
Donor solution (0.5 mM) was prepared by diluting 1 mM dimethylsulfoxide (DMSO) compound stock solution using phosphate buffer (pH 7.4, 0.025 M). Filters were coated with 5 μL of a 1% (w/v) dodecane solution of phosphatidylcholine prepared from CHCl3 solution 10% w/v, for intestinal permeability. Donor solution (150 μL) was added to each well of the filter plate. To each well of the acceptor plate were added 300 μL of solution (50% DMSO in phosphate buffer). All compounds were tested in three different plates on different days. The sandwich was incubated for 5 h at room temperature under gentle shaking. After the incubation time, the plates were separated, and samples were taken from both receiver and donor sides and analyzed using LC with UV detection at 280 nm.
LC analysis were performed with a Varian Prostar HPLC system (Varian Analytical Instruments, USA) equipped with a binary pump with a manual injection valve and model Prostar 325 UV-VIS Detector.
Chromatographic separation were conducted using a Polaris C18-A column (150-4.6 mm, 5 μm particle size) at a flow rate of 0.8 mL min-1 with a mobile phase composed of 60% ACN/40% H2O.
Permeability (Papp) for PAMPA was calculated according to the following equation, obtained from Wohnsland and Faller and Sugano et al. equation with some modification in order to obtain permeability […]
where VA is the volume in the acceptor well, VD is the volume in the donor well (cm3), A is the “effective area” of the membrane (cm2), t is the incubation time (s) and r the ratio between drug concentration in the acceptor and equilibrium concentration of the drug in the total volume (VD+VA). Drug concentration is estimated by using the peak area integration.
Membrane retentions (%) were calculated according to the following equation: […]
where r is the ratio between drug concentration in the acceptor and equilibrium concentration, D, A, and Eq represented drug concentration in the donor, acceptor and equilibrium solution, respectively. […]
15 min. The flow rate was 0.2 mL min-1 and injection volume was 5 μL. The instrument operated in positive mode and parameters were: detector 1850 V, drying gas pressure 25.0 psi, desolvation temperature 300.0 °C, nebulizing gas 40.0 psi, needle 5000 V and shield 600 V. Nitrogen was used as nebulizer gas and drying gas.
Collision induced dissociation was performed using Argon as the collision gas at a pressure of 1.8 mTorr in […]
Microsomal Stability Assay.
Each compound in DMSO solution was incubated at 37 °C for 60 min in 125 mM phosphate buffer (pH 7.4), 5 μL of human liver microsomal protein (0.2 mg mL-1), in the presence of a NADPH-generating system at a final […]
reaction was stopped by cooling on ice and adding 1.0 mL of acetonitrile. The reaction mixtures were then centrifuged, and the parent drug and metabolites were subsequently determined by LC-UV-MS. […]

AppP (apparent permeability) [1]: good values of passive permeability | Memb. Ret. % (membrane retention) [1]: 23.9% | Papp at 5 h, 0.5 mM [1]: 7.47 ×10⁻⁶ cm/s
SMILES: CCCCc1cn(-c2ccc(NC(=O)Nc3ccccc3C(F)(F)F)cc2)nn1 [BA103, 1-(4-(4-Butyl-1H-1,2,3-triazol-1-yl)phenyl)-3-(2-(trifluoromethyl)phenyl)urea]
mean absorbance at 490 nm (MTS) (U87 cells; U87, 0,01 uM): 1,598 | mean absorbance at 490 nm (MTS) (U87 cells; U87, 0,1 uM): 1,132 | mean absorbance at 490 nm (MTS) (U87 cells; U87, 1 uM): 0,959 | mean absorbance at 490 nm (MTS) (U87 cells; U87, 10 uM): 0,804 | mean absorbance at 490 nm (MTS) (U87 cells; U87, 100 uM): 0,566 | CC50 (U87 cells; U87, 72 h): low micromolar range

AppP (apparent permeability) [1]: good values of passive permeability | Memb. Ret. % (membrane retention) [1]: 10.3% | Papp at 5 h, 0.5 mM [1]: 9.75 ×10⁻⁶ cm/s
SMILES: CCCCc1nnc(-c2ccc(NC(=O)Nc3ccccc3C(F)(F)F)cc2)o1 [Compound 3, 1-(4-(5-Butyl-1,3,4-oxadiazol-2-yl)phenyl)-3-(2-(trifluoromethyl)phenyl)urea]
mean absorbance at 490 nm (MTS) (U87 cells; U87, 0,01 uM): 1,350 | mean absorbance at 490 nm (MTS) (U87 cells; U87, 0,1 uM): 1,140 | mean absorbance at 490 nm (MTS) (U87 cells; U87, 1 uM): 1,178 | mean absorbance at 490 nm (MTS) (U87 cells; U87, 10 uM): 1,065 | mean absorbance at 490 nm (MTS) (U87 cells; U87, 100 uM): 0,568

AppP (apparent permeability) [1]: good values of passive permeability | Memb. Ret. % (membrane retention) [1]: 21.6% | Papp at 5 h, 0.5 mM [1]: 10.2 ×10⁻⁶ cm/s
SMILES: CCCCn1nnc(-c2ccc(NC(=O)Nc3ccccc3C(F)(F)F)cc2)n1 [Compound 6, 1-(4-(2-Butyl-2H-tetrazol-5-yl)phenyl)-3-(2-(trifluoromethyl)phenyl)urea]
mean absorbance at 490 nm (MTS) (U87 cells; U87, 0,01 uM): 1,944 | mean absorbance at 490 nm (MTS) (U87 cells; U87, 0,1 uM): 1,964 | mean absorbance at 490 nm (MTS) (U87 cells; U87, 1 uM): 2,007 | mean absorbance at 490 nm (MTS) (U87 cells; U87, 10 uM): 1,387 | mean absorbance at 490 nm (MTS) (U87 cells; U87, 100 uM): 0,540

The remaining lines, values behind:

SMILES: CCCCc1cn(-c2ccc(NC(=O)Nc3ccccc3C)cc2)nn1 [Compound 1, reference compound]
mean absorbance at 490 nm (MTS) (U87 cells; U87, 0,01 uM): 2,027 | mean absorbance at 490 nm (MTS) (U87 cells; U87, 0,1 uM): 2,018 | mean absorbance at 490 nm (MTS) (U87 cells; U87, 1 uM): 2,000 | mean absorbance at 490 nm (MTS) (U87 cells; U87, 10 uM): 1,584 | mean absorbance at 490 nm (MTS) (U87 cells; U87, 100 uM): 0,465 | AppP (apparent permeability) [1]: 2.86 ×10⁻⁶ cm/s | Memb. Ret. % (membrane retention) [1]: 19.1%

SMILES: CCCCc1nnc(-c2ccc(NC(=O)Nc3ccccc3C(F)(F)F)cc2)[nH]1 [Compound 4, 1-(4-(5-Butyl-4H-1,2,4-triazol-3-yl)phenyl)-3-(2-(trifluoromethyl)phenyl)urea]
mean absorbance at 490 nm (MTS) (U87 cells; U87, 0,01 uM): 1,906 | mean absorbance at 490 nm (MTS) (U87 cells; U87, 0,1 uM): 1,293 | mean absorbance at 490 nm (MTS) (U87 cells; U87, 1 uM): 0,941 | mean absorbance at 490 nm (MTS) (U87 cells; U87, 10 uM): 0,784 | mean absorbance at 490 nm (MTS) (U87 cells; U87, 100 uM): 0,162 | AppP (apparent permeability) [1]: very low passive permeability | Memb. Ret. % (membrane retention) [1]: 2.3% | Papp at 5 h, 0.5 mM [1]: < 0.1 ×10⁻⁶ cm/s

SMILES: CC(C)CCc1cn(-c2ccc(NC(=O)Nc3cccc4cnccc34)cn2)nn1 [Compound 10, 1-(6-(4-Isopentyl-1H-1,2,3-triazol-1-yl)pyridin-3-yl)-3-(isoquinolin-5-yl)urea]
mean absorbance at 490 nm (MTS) (U87 cells; U87, 0,01 uM): 1,863 | mean absorbance at 490 nm (MTS) (U87 cells; U87, 0,1 uM): 1,379 | mean absorbance at 490 nm (MTS) (U87 cells; U87, 1 uM): 1,165 | mean absorbance at 490 nm (MTS) (U87 cells; U87, 10 uM): 0,858 | mean absorbance at 490 nm (MTS) (U87 cells; U87, 100 uM): 0,467 | Memb. Ret. % (membrane retention) [1]: 11.3% | Papp at 5 h, 0.5 mM [1]: 1.21 ×10⁻⁶ cm/s
